Test results reported in patent US11760756B2, “Crystalline form of a PD-1/PD-L1 inhibitor” (Incyte Corporation, priority 2020, dated 2023).

What was measured:
Type in all cases: physicochemical
[1] = solid state form stability under water, humidity and drying conditions
Method: (§1) Form I is a non-solvate and non-hydrate crystalline form. On DSC, it first undergoes dehydration at below 125° C. followed by melting at around 148-160° C. […] On TGA, approximately 2.4% weight loss is observed at below 120° C., which is mainly due to dehydration. The compound decomposes above 160° C. after melting. Like the amorphous powder of Compound 1 drug substance, this non-solvate and non-hydrate crystalline form (Form I) is hygroscopic. […] It decomposes above 160° C. after melting. During water dynamic vapor sorption (DVS) analysis of this non-solvate and non-hydrate crystalline form (Form I), approximately 6.5% of water was absorbed at 80% RH and 25° C. for this crystalline form and the sample was pre-dried at 50° C. under dried nitrogen (N2) for 1 hour before the DVS analysis. For comparison, approximately 12% of water was absorbed at 80% RH and 25° C. for the amorphous powder.
(§2) Like the amorphous powder of Compound 1 drug substance, this meta-stable non-solvate crystalline form (Form IV) is hygroscopic. During water dynamic vapor sorption (DVS) analysis of this non-solvate crystalline form (Form IV), approximately 8.2% of water was absorbed at 80% RH and 25° C. for this crystalline form and the sample was pre-dried at 25° C. under dried nitrogen (N2) for 1 hour before the DVS analysis.

[2] = water dynamic vapor sorption (DVS) analysis; details: for water absorbed (DVS): 80% RH and 25° C., sample pre-dried under dried nitrogen for 1 hour (Form I at 50° C., Form IV at 25° C.)
Method: as §1, §2

[3] = Thermogravimetric Analysis (TGA), decomposition; details: ramp from 25° C. to 300° C. at 10° C./min
Description: X-Ray Powder Diffraction (XRPD): Compound 1 crystalline forms were characterized by XRPD. The X-Ray Powder Diffraction (XRPD) was obtained from Bruker D8 Advance ECO X-ray Powder Diffractometer (XRPD) instrument. The general experimental procedures for XRPD were: (1) X-ray radiation from copper at 1.5418 Å and LYNXEYE™ detector; (2) X-ray power at 40 kV, 25 mA; and (3) the sample powder was dispersed on a zero-background sample holder. The general measurement conditions for XRPD were: Start Angle 3 degrees; Stop Angle 30 degrees; Sampling 0.015 degrees; and Scan speed 2 degree/min. Differential Scanning calorimetry (DSC): Compound 1 crystalline forms were characterized by DSC. The DSC was obtained from TA Instruments Differential Scanning calorimetry, Discovery DSC2500 with auto sampler. The DSC instrument conditions were as follows: 20-300° C. at 10° C./min; Tzero aluminum sample pan and lid; and nitrogen gas flow at 50 mL/min. Thermogravimetric Analysis (TGA): Compound 1 crystalline forms were also characterized by TGA. The TGA was obtained from TA Instruments Thermogravimetric Analyzer, Discovery TGA5500 with auto sampler. The general experimental conditions for TGA were: ramp from 25° C. to 300° C. at 10° C./min; nitrogen purge gas flow at 25 mL/min; platinum sample holder.

SMILES | hygroscopicity [2] | water absorbed (DVS) [2] | crystalline form change in the solid state after the DVS analysis [2] | decomposition temperature (TGA) [3] | also measured
Cc1c(Nc2nccc3cc(CN4CC[C@@H](O)C4)cnc23)cccc1-c1cccc(-c2nc3cc(CN4CC[C@@H](C(=O)O)C4)cc(C#N)c3o2)c1C [Form I, (R)-1-((7-cyano-2-(3′-(3-(((R)-3-hydroxypyrrolidin-1-yl)methyl)-1,7-naphthyridin-8-ylamino)-2,2′-dimethylbiphenyl-3-yl)benzo[d]oxazol-5-yl)methyl)pyrrolidine-3-carboxylic acid] | hygroscopic | approximately 6.5% | No crystalline form change was observed | above 160 °C | change in solid state form / hydrate formation ([1]; after stirring in water at ambient temperature for overnight): no change in solid state form; change in solid state form / hydrate formation ([1]; cycling from 5% RH to 95% RH and back to 5% RH at 25° C. and 5% RH interval): no change in solid state form; change in solid state form / hydrate formation ([1]; drying under dry nitrogen gas (N2) at 25° C. for one day): no change in solid state form; change in solid state form / hydrate formation ([1]; humidifying under 95% RH/25° C. for three days): no change in solid state form; thermodynamic stability of the crystalline form ([1]; under the current investigated process conditions): thermodynamically most stable crystalline form
Cc1c(Nc2nccc3cc(CN4CC[C@@H](O)C4)cnc23)cccc1-c1cccc(-c2nc3cc(CN4CC[C@@H](C(=O)O)C4)cc(C#N)c3o2)c1C [Form V, (R)-1-((7-cyano-2-(3′-(3-(((R)-3-hydroxypyrrolidin-1-yl)methyl)-1,7-naphthyridin-8-ylamino)-2,2′-dimethylbiphenyl-3-yl)benzo[d]oxazol-5-yl)methyl)pyrrolidine-3-carboxylic acid] | – | – | – | above 160 °C | –
Cc1c(Nc2nccc3cc(CN4CC[C@@H](O)C4)cnc23)cccc1-c1cccc(-c2nc3cc(CN4CC[C@@H](C(=O)O)C4)cc(C#N)c3o2)c1C [Form IV, (R)-1-((7-cyano-2-(3′-(3-(((R)-3-hydroxypyrrolidin-1-yl)methyl)-1,7-naphthyridin-8-ylamino)-2,2′-dimethylbiphenyl-3-yl)benzo[d]oxazol-5-yl)methyl)pyrrolidine-3-carboxylic acid] | hygroscopic | approximately 8.2% | No crystalline form change was observed | above 140 °C | crystalline form after further drying ([1]; drying on the filter at ambient temperature for 3-6 days, residual THF approximately 0.1 wt %): remained unchanged
Cc1c(Nc2nccc3cc(CN4CC[C@@H](O)C4)cnc23)cccc1-c1cccc(-c2nc3cc(CN4CC[C@@H](C(=O)O)C4)cc(C#N)c3o2)c1C [Form II, (R)-1-((7-cyano-2-(3′-(3-(((R)-3-hydroxypyrrolidin-1-yl)methyl)-1,7-naphthyridin-8-ylamino)-2,2′-dimethylbiphenyl-3-yl)benzo[d]oxazol-5-yl)methyl)pyrrolidine-3-carboxylic acid] | – | – | – | above 170 °C | –
Cc1c(Nc2nccc3cc(CN4CC[C@@H](O)C4)cnc23)cccc1-c1cccc(-c2nc3cc(CN4CC[C@@H](C(=O)O)C4)cc(C#N)c3o2)c1C [Form III, (R)-1-((7-cyano-2-(3′-(3-(((R)-3-hydroxypyrrolidin-1-yl)methyl)-1,7-naphthyridin-8-ylamino)-2,2′-dimethylbiphenyl-3-yl)benzo[d]oxazol-5-yl)methyl)pyrrolidine-3-carboxylic acid] | – | – | – | above 160 °C | –
Cc1c(Nc2nccc3cc(CN4CC[C@@H](O)C4)cnc23)cccc1-c1cccc(-c2nc3cc(CN4CC[C@@H](C(=O)O)C4)cc(C#N)c3o2)c1C [amorphous powder, (R)-1-((7-cyano-2-(3′-((3-(((R)-3-hydroxypyrrolidin-1-yl)methyl)-1,7-naphthyridin-8-yl)amino)-2,2′-dimethyl-[1,1′-biphenyl]-3-yl)benzo[d]oxazol-5-yl)methyl)pyrrolidine-3-carboxylic acid] | hygroscopic | approximately 12% | – | above 170 °C | –
